Biological target: T1, NaV1.3 (Rattus norvegicus, UniProt P08104)
T1 construct: gene Scn3a
Experiment: manual whole-cell patch-clamp of endogenous INa in GH3b6 cells
Format: cell-based
Details: read-out: % reduction of INa amplitude at 1 μM

T1 sequence (P08104 whole entry): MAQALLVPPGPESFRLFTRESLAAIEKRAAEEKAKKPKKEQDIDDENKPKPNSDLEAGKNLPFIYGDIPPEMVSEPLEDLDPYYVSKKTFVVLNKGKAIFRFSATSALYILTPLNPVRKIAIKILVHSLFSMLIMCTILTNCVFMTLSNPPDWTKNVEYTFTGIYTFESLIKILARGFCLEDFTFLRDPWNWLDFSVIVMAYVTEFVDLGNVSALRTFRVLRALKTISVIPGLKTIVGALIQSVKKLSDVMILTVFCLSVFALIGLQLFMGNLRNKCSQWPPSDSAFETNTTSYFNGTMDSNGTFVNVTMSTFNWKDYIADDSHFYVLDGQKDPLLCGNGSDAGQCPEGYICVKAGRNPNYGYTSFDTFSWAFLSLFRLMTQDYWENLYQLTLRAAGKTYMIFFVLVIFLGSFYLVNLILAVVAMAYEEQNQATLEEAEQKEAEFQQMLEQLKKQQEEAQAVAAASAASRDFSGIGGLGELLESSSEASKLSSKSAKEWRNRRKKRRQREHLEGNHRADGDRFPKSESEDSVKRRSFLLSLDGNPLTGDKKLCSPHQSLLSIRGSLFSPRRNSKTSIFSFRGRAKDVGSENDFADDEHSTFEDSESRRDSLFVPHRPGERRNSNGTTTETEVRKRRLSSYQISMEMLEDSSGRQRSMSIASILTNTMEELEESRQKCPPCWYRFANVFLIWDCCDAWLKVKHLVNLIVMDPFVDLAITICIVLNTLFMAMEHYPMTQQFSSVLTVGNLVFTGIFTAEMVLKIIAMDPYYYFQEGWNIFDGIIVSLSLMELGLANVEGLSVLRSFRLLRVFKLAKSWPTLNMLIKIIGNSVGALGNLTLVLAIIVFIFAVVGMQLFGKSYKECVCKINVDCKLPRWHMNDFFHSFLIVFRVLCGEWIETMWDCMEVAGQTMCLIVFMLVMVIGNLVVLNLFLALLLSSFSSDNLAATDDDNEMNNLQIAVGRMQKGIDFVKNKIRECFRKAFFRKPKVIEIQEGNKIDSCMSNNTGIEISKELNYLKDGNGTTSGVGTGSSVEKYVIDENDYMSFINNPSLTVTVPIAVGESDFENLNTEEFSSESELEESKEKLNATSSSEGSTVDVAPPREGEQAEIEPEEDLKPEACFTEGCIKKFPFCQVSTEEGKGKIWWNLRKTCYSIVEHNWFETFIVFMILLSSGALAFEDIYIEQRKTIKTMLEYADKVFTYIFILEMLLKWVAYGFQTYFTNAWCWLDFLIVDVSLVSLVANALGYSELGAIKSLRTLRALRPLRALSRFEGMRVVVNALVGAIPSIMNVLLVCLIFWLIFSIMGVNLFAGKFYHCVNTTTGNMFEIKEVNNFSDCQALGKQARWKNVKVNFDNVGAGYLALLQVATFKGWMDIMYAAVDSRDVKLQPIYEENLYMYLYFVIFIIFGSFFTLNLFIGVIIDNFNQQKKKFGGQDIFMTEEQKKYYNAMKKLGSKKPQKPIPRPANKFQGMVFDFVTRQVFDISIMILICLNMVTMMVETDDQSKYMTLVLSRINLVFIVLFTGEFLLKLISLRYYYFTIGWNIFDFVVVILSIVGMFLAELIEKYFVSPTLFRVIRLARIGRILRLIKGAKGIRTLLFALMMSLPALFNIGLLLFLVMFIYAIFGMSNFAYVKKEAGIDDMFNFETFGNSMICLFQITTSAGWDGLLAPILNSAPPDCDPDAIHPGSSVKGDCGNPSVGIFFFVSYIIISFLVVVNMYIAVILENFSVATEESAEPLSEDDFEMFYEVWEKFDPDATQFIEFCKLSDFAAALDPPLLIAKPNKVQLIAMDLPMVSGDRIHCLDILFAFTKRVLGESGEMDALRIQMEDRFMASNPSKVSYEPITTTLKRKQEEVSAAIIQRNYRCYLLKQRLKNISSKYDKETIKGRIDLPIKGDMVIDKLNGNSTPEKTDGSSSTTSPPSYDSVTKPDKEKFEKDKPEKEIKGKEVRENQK

O=C(Nc1ccc(S(=O)(=O)Nc2nccs2)cc1)C(c1ccccc1)c1ccccc1 [ICA-121431]
inhibition at 1 µM: 50%

— publication PMC8775721, “Pharmacological Dissection of the Crosstalk between NaV and CaV Channels in GH3b6 Cells” (International Journal of Molecular Sciences, 2022)
